Data from patent publication US20230123695A1, “GLYCAN COMPOSITIONS AND METHODS OF USE” (DSM Nutritional Products, LLC, priority 2018, published 2023).

Assays:
Assay type in all cases: cell-based, human fecal cultures
[1] = test system: Firmicutes, Proteobacteria, and/or Actinobacteria; assay: Ex vivo fecal slurry assay, 16S rRNA sequencing (Example 11); conditions: 1% w/v fecal slurry from 12 subjects, glycan 0.5% w/v, 37° C., 18 hours, anaerobically; FIGS. 4-6
Description: (§1) An ex vivo assay was designed to determine if glycans can be used to modulate a complex community of microorganisms and if the glycans produced consistent effects across communities obtained from multiple (twelve) subjects. Fecal samples and slurries were handled in an anaerobic chamber (AS-580, Anaerobe Systems) featuring a palladium catalyst. Glycans ara100, gal100, glu60man40, glu100, glu50gal50, gal33man33ara33, man75gal25, glu33gal33man34, glu33gal33Ara33, man100, man52glu29gal19 and commercially available glycans lactulose (Alfa Aesar) and FOS (Nutraflora FOS; NOW Foods, Bloomingdale Ill.) were included in the study. The fecal sample donations obtained from 12 subjects were stored at −80° C. To prepare working stocks the fecal samples were transferred into the anaerobic chamber and allowed to thaw.
Microbial beta-glucuronidase, found in Proteobacteria, Firmicutes, and Actinobacteria, is known to modify SN-38 glucuronide, which is used to treat cancer (e.g., colorectal cancer) and has the side-effect of diarrhea, by removing a sugar moiety, creating a compound that is toxic to intestinal epithelial cells. Decreasing the levels or activity of microbial beta-glucuronidase expressing microbes may increase the effectiveness of SN-38 glucuronidine treatment and/or decrease/prevent side effects.

[2] = test system: Actinobacteria and/or Coriobacteriaceae/Gordonibacter; assay: Ex vivo fecal slurry assay, 16S rRNA sequencing (Example 13); conditions: 1% w/v fecal slurry from 12 subjects, glycan 0.5% w/v, 37° C., 18 hours, anaerobically; FIGS. 6 and 8
Description: as §1
A microbial enzyme found in Actinobacteria and Coriobacteriaceae/Gordonibacter is known to hydrolyze ellagitannin to ellagic acid.

[3] = test system: Enterococcaceae/Enterococcus and/or Bifidobacteriaceae/Bifidobacterium; assay: Ex vivo fecal slurry assay, 16S rRNA sequencing (Example 15); conditions: 1% w/v fecal slurry from 12 subjects, glycan 0.5% w/v, 37° C., 18 hours, anaerobically; FIGS. 3 and 10
Description: as §1
A microbial enzyme, found in Enterococcus faecium, Lactobacillus mucosae, Bifidobacterium sp., and Eggerthella sp., is known to metabolize daidzin into equol, which binds estrogen receptor-beta and may be associated with lower risk/incidence of breast cancer. Increasing the levels or activity of microbes expressing said microbial enzyme may increase the have a preventative effect on cancer, e.g., breast cancer, or treat cancer, e.g., breast cancer.

[4] = test system: Enterobacteriaceae/Escherichia/Shigella microbes; assay: Ex vivo fecal slurry assay, 16S rRNA sequencing (Example 17); conditions: 1% w/v fecal slurry from 12 subjects, glycan 0.5% w/v, 37° C., 18 hours, anaerobically; FIG. 14
Description: as §1
Microbial beta-glucuronidase, found in bacteria that carry the uidA gene, e.g., Escherichia coli, is known to reactivate glucuronidated substrate, e.g., heterocyclic amines, (detoxified by hepatic glucuronidation), by removing the conjugate, generating a toxic compound. Decreasing the levels or activity of microbial beta-glucuronidase expressing microbes may decrease the generation of toxic, e.g., carcinogenic, compounds, which may have a preventative effect on cancer.

[5] = test system: Enterococcaceae/Enterococcus and/or Enterobacteriaceae/Escherichia/Shigella microbes; assay: Ex vivo fecal slurry assay, 16S rRNA sequencing (Example 18); conditions: 1% w/v fecal slurry from 12 subjects, glycan 0.5% w/v, 37° C., 18 hours, anaerobically; FIGS. 3 and 14
Description: as §1
A microbial enzyme, found in Enterococcus, Clostridium, Corynebacterium, Campylobacter, and Escherichia, is known to convert sweetener to a compound that can be toxic, e.g., converts cyclamate to cyclohexylamine, which can be toxic. Decreasing the levels or activity of microbes expressing said microbial enzyme may decrease the generation of toxic compounds.

[6] = test system: Enterobacteriales/Enterobacteriaceae microbes; assay: Ex vivo fecal slurry assay, 16S rRNA sequencing (Example 19); conditions: 1% w/v fecal slurry from 12 subjects, glycan 0.5% w/v, 37° C., 18 hours, anaerobically; FIG. 15
Description: as §1
Microbial phosphorylase, e.g., thymidine phosphorylase or uridine phosphorylase, found in Enterobacteria, e.g., K. pneumoniae, is known to deglycosylate sorivudine, inactivating it. Sorivudine is used to treat viral infection (e.g. herpes simplex virus 1 and varicella-zoster virus). Decreasing the levels or activity of microbes expressing said microbial phosphorylase may decrease the inactivation of sorivudine and increase the effectiveness of sorivudine treatment against viral infections.

[7] = test system: Ruminococcaceae/Ruminococcus microbes; assay: Ex vivo fecal slurry assay, 16S rRNA sequencing (Example 21); conditions: 1% w/v fecal slurry from 12 subjects, glycan 0.5% w/v, 37° C., 18 hours, anaerobically; FIG. 17
Description: as §1
A microbial enzyme found in Bacteroidetes (e.g., Bacteroidales) and mucolytic bacteria such as Ruminococcus gnavus, is known to cause metabolic and inflammatory response to emulsifying agents. Decreasing the levels or activity of microbes expressing said microbial enzyme may increase the effectiveness of emulsifying agents, e.g, carboxymethylcellulose or polysorbate-80, e.g., to decrease risk/incidence of metabolic syndrome and/or inflammation.

Q: With `OC[C@H]1O[C@@H](O[C@@H]2[C@@H](CO)OC(O)(CO)[C@H]2O)[C@H](O)[C@@H](O)[C@H]1O` (mixture of isomers) [lactulose] as the compound, how does the “levels of Firmicutes, Proteobacteria, and/or Actinobacteria” value [1] read?
A: Its value is “appeared to decrease”.

Q: And the “levels of Actinobacteria and/or Coriobacteriaceae/Gordonibacter” value [2]?
A: The value was “appeared to decrease”.

Q: And the “levels of Enterococcaceae/Enterococcus and/or Bifidobacteriaceae/Bifidobacterium” value [3]?
A: Its value is “appeared to increase”.

Q: What about the “levels of Enterobacteriaceae/Escherichia/Shigella microbes” value [4] of the same compound?
A: The value was “appeared to decrease”.

Q: And the “levels of Enterococcaceae/Enterococcus and/or Enterobacteriaceae/Escherichia/Shigella microbes” value [5]?
A: Its value is “appeared to decrease”.

Q: What about the “levels of Enterobacteriales/Enterobacteriaceae microbes” value [6] of the same compound?
A: The value was “appeared to decrease”.

Q: And the “levels of Ruminococcaceae/Ruminococcus microbes” value [7]?
A: Its value is “appeared to decrease”.
